Test results as given in publication PMC10959927, “Platinum iodido drugs show potential anti-tumor activity, affecting cancer cell metabolism and inducing ROS and senescence in gastrointestinal cancer cells” (Communications Biology, 2024).
Values joined by “and” are separate entries in the source; they are usually repeats but may differ in a detail not shown here. Equal entries are not always repeated.

Columns and labels:
[1] = system: AGS cells; assay: Immunofluorescence of γ-H2AX and 53BP1 foci; assay type: cell-based, human; details: for foci/cell, share of cells in class (Suma 100) / foci/cell, number of cells in class: Fig. 3B; for foci/cell, number of cells in class: cell count
Description: (§1) Cells (7 × 10^4) were seeded on 20 mm coverslips. […] Coverslips were incubated for 1 h with the primary antibody (Cell Signaling: H2AX Ser139 (#2595) and 53BP1 (#4937)) at room temperature, followed by a 1 h incubation with the appropriate secondary antibody. DNA was stained with DAPI. Fluorescence microscopy was performed using a NIKON Eclipse 90i. The image analysis was performed using the software program Nikon NIS-Elements and Image J.

[2] = system: PANC1 cells; assay: Immunofluorescence of γ-H2AX and 53BP1 foci; assay type: cell-based, human; details: for foci/cell, share of cells in class (Suma 100) / foci/cell, number of cells in class: PANC1, Fig. 3B; for foci/cell, number of cells in class: cell count
Description: as §1

[3] = system: telomeres, 36B4, MT-COX1, MT-CYB DNA of MKN45 cells; assay: Oxidized bases (FPG-sensitive lesions) in genome regions by qPCR; assay type: cell-based, human; details: MKN45, IC50 concentration 24 h, normalized to control, single replicates
From the text: (§2) Total cellular DNA from MKN45 and PANC1 cells was extracted using an NZY Tissue gDNA Isolation Kit (Nzytech, MB13503) following the manufacturer’s instructions and quantified using a Nanodrop (Nanodrop Spectrophotometer ND-1000, ThermoFisher Scientific, Wilmington, DE, USA). We adapted the procedure described by O’Callaghan et al.[76] to measure oxidative DNA damage at telomeres, 36B4 genomic region and at mitochondrial DNA (MT-COX1, MT-CYB). This is a qPCR method based on differences in PCR kinetics between DNA template digested by Formamidopyrimidine DNA Glycosylase (FPG, Cat no. M0240S) and undigested DNA. This enzyme recognizes and cuts 8-oxoguanine, producing apurinic sites that are converted into single-strand breaks by its apurinic sites lyase activity. These single-strand breaks inhibit the PCR, thus, the ΔCT after digesting DNA by […] (Ct digested–Ct undigested) is proportional to the oxidative damage in the amplified region. DNA was incubated with 8 Units of FPG during 3 h in FPG buffer (NEB1, M0240S). The reaction was stopped by incubation at 95 °C for 5 min. qPCR analysis was performed on 40 ng of digested or undigested genomic DNA. Each qPCR was performed in triplicate including no-template controls in a StepOne Real‐time PCR System (Applied Biosystems, 4376357). Target genes (Table 3) were amplified using SYBR Green (Applied Biosystems, MB345). Thermal cycling of the qPCR reaction was initiated with a denaturation step at 95 °C for 10 min. The process consisted of 40 cycles (denaturation at 95 °C for 15 sec, annealing at 60 °C for 30 sec, and elongation at 72 °C for 30 sec). This experiment was repeated three independent times with 10–12 replicates.

[4] = system: telomeres, 36B4, MT-COX1, MT-CYB DNA of PANC1 cells; assay: as above; assay type: cell-based, human; details: PANC1, IC50 concentration 24 h, normalized to control, single replicates
From the text: as §2

[5] = system: MKN45 cells; assay: SA-β-Gal activity, CellEvent Senescence Green flow cytometry;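 also: IC50 concentration of each compound relative to untreated control set as 1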; assay type: cell-based, human; details: Fig. 3A, replicate values
Description: (§3) SA-β-Gal activity was measured following two different approaches. (i) AGS, MKN45 and PANC1 cells (5 × 10^4) were seeded in 24-multiwell dishes and incubated overnight. […] For flow cytometry cell senescence detection, cells were tripsinized, fixed for 15 min with PFA 4% and stained with the CellEvent Senescense Green Flow Cytometry Assay Kit (C10840, Invitrogen) according to manufacturer’s instructions. CellEvent Senescense Green Probe was used at a 1:500 dilution and fluorescence was detected using the filter (Ex488nm/Em530/30) BL1 with a 4-laser Attune NxT Acoustic Cytometer (Thermo Fisher Scientific). […] After 3 h, the treatments were removed, new supplemented medium was added, and cells were incubated for an additional 24 h. Finally, SA-β-Gal staining was performed using the Senescence Cells Histochemical Staining Kit (CS0030-1KT) according to the manufacturer’s instructions.

[6] = system: AGS cells; assay: as above; assay type: cell-based, human; details: Fig. 3A, replicate values
Description: as §3

[7] = system: PANC1 cells; assay: as above; assay type: cell-based, human; details: Fig. 3A, replicate values
Description: as §3

[8] = system: CC2509 fibroblasts; assay: Cell viability, crystal violet staining, non-tumoral cells; details: read-out: IC50 concentration (± SD) at 48 h in non-tumoral cell lines; CC2509, 48 h
Description: (§4) Cell viability was assessed using a crystal violet-based staining method. […] The cells (2 × 10^5) were seeded in 24-multiwell dishes in 0.5 mL of complete medium and incubated overnight. […] After 48 h, cells were fixed with 1% glutaraldehyde (20–30 min), washed with distilled water, and stained with 0.1% crystal violet. […] IC50 were calculated by using GraphPad Prism (version 8.0). Nonlinear regression was used to fit the data to the log (inhibitor) versus response (variable slope).

[9] = system: HPDE cells; assay: as above; details: read-out: IC50 concentration (± SD) at 48 h in non-tumoral cell lines
Description: as §4
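For Fold change % Senescence in this document: IC50 concentration of each compound relative to untreated control set as 1.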

## [NH2][Pt]([NH2])([Cl])[Cl] [CDDP, cisplatin, reference compound]
[1]; class 16-30 foci/cell
  foci/cell, share of cells in class (Suma 100): 23.0769
  foci/cell, number of cells in class: 18
[1]; class 31-45 foci/cell
  foci/cell, share of cells in class (Suma 100): 26.9231
  foci/cell, number of cells in class: 21
[1]; class 46-60 foci/cell
  foci/cell, share of cells in class (Suma 100): 21.7949
  foci/cell, number of cells in class: 17
[1]; class <15 foci/cell
  foci/cell, share of cells in class (Suma 100): 21.7949
  foci/cell, number of cells in class: 17
[1]; class >61 foci/cell
  foci/cell, share of cells in class (Suma 100): 6.41
  foci/cell, number of cells in class: 5
[1]; Fig. S4B, cell counts
  foci/cell: number of cells with 16-30 foci: 35
  foci/cell: number of cells with 31-45 foci: 15
  foci/cell: number of cells with 46-60 foci: 5
  foci/cell: number of cells with <15 foci: 45
  foci/cell: number of cells with >61 foci: 4
[1]; Fig. S4B, share of N
  foci/cell: share of cells with 16-30 foci (Suma 100): 33.6538
  foci/cell: share of cells with 31-45 foci (Suma 100): 14.4231
  foci/cell: share of cells with 46-60 foci (Suma 100): 4.808
  foci/cell: share of cells with <15 foci (Suma 100): 43.2692
  foci/cell: share of cells with >61 foci (Suma 100): 3.846
[2]; PANC1, Fig. S4B, cell counts
  foci/cell: number of cells with 16-30 foci: 32
  foci/cell: number of cells with 31-45 foci: 36
  foci/cell: number of cells with 46-60 foci: 25
  foci/cell: number of cells with <15 foci: 21
  foci/cell: number of cells with >61 foci: 22
[2]; PANC1, Fig. S4B, share of N
  foci/cell: share of cells with 16-30 foci (Suma 100): 23.5294
  foci/cell: share of cells with 31-45 foci (Suma 100): 26.4706
  foci/cell: share of cells with 46-60 foci (Suma 100): 18.3824
  foci/cell: share of cells with <15 foci (Suma 100): 15.4412
  foci/cell: share of cells with >61 foci (Suma 100): 16.1765
[2]; class 16-30 foci/cell
  foci/cell, share of cells in class (Suma 100): 10
  foci/cell, number of cells in class: 11
[2]; class 31-45 foci/cell
  foci/cell, share of cells in class (Suma 100): 23.6364
  foci/cell, number of cells in class: 26
[2]; class 46-60 foci/cell
  foci/cell, share of cells in class (Suma 100): 20
  foci/cell, number of cells in class: 22
[2]; class <15 foci/cell
  foci/cell, share of cells in class (Suma 100): 6.364
  foci/cell, number of cells in class: 7
[2]; class >61 foci/cell
  foci/cell, share of cells in class (Suma 100): 40
  foci/cell, number of cells in class: 44
[3]; FPG-digested vs undigested
  TEL (Fold change - ΔCt TEL), oxidative DNA damage: 2.134 and 3.241 and 3.532 and 0.2864 and 0.7917 and 1.101 and 0.9693 and 0.9768 and 0.981 and 0.9672
[3]
  36B4 (Fold change - ΔCt 36B4), oxidative DNA damage: 0.8255 and 0.8326 and 1.095 and 1.237 and 1.611 and 1.72 and 2.271 and 2.214 and 1.327 and 2.203
  MT-COX1 (Fold change - ΔCt MT-COX1), oxidative DNA damage: 1.028 and 1.042 and 1.044 and 1.141 and 0.8202 and 0.6032 and 2.316 and 2.623 and 3.028
  MT-CYB (Fold change - ΔCt MT-CYB), oxidative DNA damage: 1.38 and 1.409 and 1.605 and 1.1947 and 1.217 and 1.312 and 1.3882 and 2.275 and 1.316 and 2.313
[4]; FPG-digested vs undigested
  TEL (Fold change - ΔCt TEL), oxidative DNA damage: 4.038 and 4.138 and 5.415 and 0.6214 and 0.3967 and 0.9429 and 1.679 and 1.417 and 1.6318 and 1.586
[4]
  36B4 (Fold change - ΔCt 36B4), oxidative DNA damage: 1.144 and 1.346 and 0.8021 and 1.678 and 2.371 and 2.867 and 3.452 and 2.312 and 2.5645
  MT-COX1 (Fold change - ΔCt MT-COX1), oxidative DNA damage: 1.1557 and 1.18 and 1.253 and 1.195 and 2.153 and 0.9478 and 1.587 and 1.014 and 1.075 and 1.118
  MT-CYB (Fold change - ΔCt MT-CYB), oxidative DNA damage: 1.618 and 1.296 and 1.304 and 1.472 and 1.131 and 1.532 and 1.619 and 1.965 and 6.543 and 5.482 and 6.158 and 5.629
[5]
  Fold change % Senescence: 1.67 fold change and 1.92 fold change and 1.87 fold change
[6]
  Fold change % Senescence: 1.16 fold change and 1.15 fold change and 1.2 fold change
[7]
  Fold change % Senescence: 1.64 fold change and 1.11 fold change and 1.53 fold change
[8]
  IC50: 25 µM and 23.8 µM
[9]
  IC50: 0.45 ± 0.05 µM
